Peptide text beside a SMILES is read from it. * marks the point of attachment. Cbz = O=C(OCc1ccccc1)*
Key:
[1] = tested on: nucleus gems in NSC34 cells; assay: Nucleus gems count by immunofluorescence staining (anti-Gemin 2); type: cell-based; settings: for increase of gems number per one hundred cells comparing to vehicle: NSC34 cells, 10 μM; for Total number of nucleus gems per 100 cells: NSC-34 cells
Experimental: The cellular expression localization of UCHL1 and SMN was determined by immunofluorescence as previously described (Hsu, S. H. et al. (2004) Exp Cell Res, 294, 185-198). HEK 293 and NSC34 cells were cultured on coverslides pre-coated with poly-L-lysine for 16 hours. After washing with cold PBS, cells were fixed with 2% paraformaldehyde in PBS for 30 minutes on ice, and then the slides were washed with PBS for 30 minutes. Cells were permeabilized with buffer containing 0.2% Triton X-100 and 1% NGS in PBS for 20 minutes on ice, and then the slides were washed with PBS to remove excess detergent. Cells were then incubated in anti-EGFP (or anti-HA) and anti-SMN polyclonal antibody (1:200) for 1 hour at room temperature. After washing cells with PBS for 30 minutes, FITC-conjugated […] anti-rabbit and -mouse polyclonal antibody (1:300) was added and the cells were incubated for another 1 hour at room temperature in a humid chamber. Cells were finally counterstained with DAPI to localize the nucleus and observed by confocal microscopy.
In additional to the use of specific UCHL1 inhibitor, the specific shRNAi constructs for UCHL1 were also used to monitor the regulatory effects of UCHL1 on SMN protein. […] The knockdown efficiency of these shRNAi constructs to UCHL1 was 25, 70 and 47% of vector control and the SMN protein was increased 32, 46 and 47% (FIG. 5D). […] The cellular function of elevated SMN was also examined with nucleus gems by immuno-fluorescence staining (FIG. 5E). The nucleus gems stained with anti-Gemin 2 antibody were counted for one hundred NSC34 treated with vehicle or LDN-57444 for 24 hours and 48 hours.

[2] = tested on: SMN protein in SMA patients' skin fibroblast cells; assay: Cellular SMN protein level in SMA patients' skin fibroblast cells; type: cell-based, human
Experimental: (§1) Western blot analysis and immunohistochemical staining were performed as described previously. The primary antibodies used in this study were β-actin (1:2,000, Santa Cruz, 1-19), SMN (1:1,000, Santa Cruz, SC-32313), Gemin 2, Gemin 3 and Gemin 5 polyclonal antibody (1:200, Santa Cruz), UCHL1 monoclonal antibodies (1:2,000, Calbiochem.), HA-tag (1:2,000, Sigma), FITC-conjugated anti-mouse, alkaline phosphatase-conjugated anti-rabbit antibodies (1:500, Jackson ImmunoResearch Lab.) and anti-EGFP rabbit polyclonal antibody (1:5,000, produced in-house).
In order to investigate the possibility of therapeutic application, the UCHL1 specific inhibitor was also applied to the SMA patients' skin fibroblast cells. Type II and type III SMA skin fibroblast cells were treated with MG132, a proteasome inhibitor, and LDN-57444.

[3] = tested on: SMN protein in NSC34 cells; assay: Cellular SMN protein level after LDN-57444 treatment (Western blot); type: cell-based; settings: for SMN protein expression level increase compared to the vehicle group: 5 μM; for SMN protein increase: 10 μM
Experimental: as §1
The cellular function of UCHL1 on SMN protein was further characterized with an over-expression assay. The UCHL1 was tagged with HA tag and over expressed in HEK293, p19 and NSC34 cells to evaluate the cellular function. […] The regulatory effect of UCHL1 was also confirmed with UCHL1 specific inhibitor (FIGS. 5A and 5B). SMN protein could effectively elevate expression level at 5 μM after LDN-57444 treatment for 8 (38%), 16 (42%), 24 (43%) and 48 (46%) hours compared to the vehicle group (FIGS. 5A and 5B).

[4] = tested on: ubiquitinated SMN protein in NSC34 cells; assay: Cellular ubiquitination of SMN (anti-SMN immunoprecipitation, anti-ubiquitin blot); type: cell-based; settings: different concentrations of inhibitor
Experimental: Immunoprecipitation assays were performed as previously described with some modifications. Cells with endogenous or ectopically expressed UCHL1 were lysed with RIPA buffer containing 0.2% SDS. After sonication, the lysate was diluted with modified RIPA containing 1% NP-40 for immunoprecipitation. Anti-UCHL1 or anti-SMN antibodies were used to immunoprecipitate the protein. The re-suspended IP complexes were then analyzed by Western blot.
Next, to determine the functional significance of this interaction, purified UCHL1 tagged with 6×His was co-incubated with SMN immunoprecipitate and in vitro ubiquitination assay was performed. […] The SMN protein complex was immunoprecipitated from total cell extract treated with different concentrations of UCHL1 inhibitor and the level of ubiquitinated SMN was determined by the use of anti-ubiquitin antibody.

SMILES | increase of gems number per one hundred cells comparing to vehicle ([1]; 24 hours) [fold] | increase of gems number per one hundred cells comparing to vehicle ([1]; 48 hours) [fold] | Total number of nucleus gems per 100 cells ([1]; 10 μmol/l, 24 h) [per 100 cells] | Total number of nucleus gems per 100 cells ([1]; 10 μmol/l, 48 h, medium and LDN-57444 replaced each day) [per 100 cells] | Total number of nucleus gems per 100 cells ([1]; 20 μmol/l, 24 h) [per 100 cells] | Total number of nucleus gems per 100 cells ([1]; 20 μmol/l, 48 h, medium and LDN-57444 replaced each day) [per 100 cells] | increase of cellular SMN protein level ([2]; type I SMA skin fibroblast cells) | increase of cellular SMN protein level ([2]; type II SMA skin fibroblast cells) | increase of cellular SMN protein level ([2]; type III SMA skin fibroblast cells) | SMN protein expression level increase compared to the vehicle group ([3]; 8 hours) [%] | SMN protein expression level increase compared to the vehicle group ([3]; 16 hours) [%] | SMN protein expression level increase compared to the vehicle group ([3]; 24 hours) [%] | SMN protein expression level increase compared to the vehicle group ([3]; 48 hours) [%] | SMN protein increase ([3]; 8 hours) [%] | SMN protein increase ([3]; 16 hours) [%] | SMN protein increase ([3]; 24 hours) [%] | SMN protein increase ([3]; 48 hours) [%] | SMN protein level, time course at high dosage ([3]; 15 μM) | cellular SMN protein level (in words) ([2]; SMA skin fibroblast cells, positive control) | level of ubiquitinated SMN protein [4]
CC(=O)O/N=C1\C(=O)N(Cc2cc(Cl)ccc2Cl)c2ccc(Cl)cc21 [LDN-57444] | 2.25 | 2.54 | 142±7.55 | 164 ± 8.50 | 189 ± 10.72 | 193 ± 10.21 | 52-62% | 31-38% | 72-87% | 38 | 42 | 43 | 46 | 40 | 56 | 83 | 53 | time delay increase in SMN protein level until 16 hours |  | 
CC(C)C[C@@H](C=O)NC(=O)[C@H](CC(C)C)NC(=O)[C@H](CC(C)C)NC(=O)OCc1ccccc1 [MG132] (Cbz-Leu-Leu-Leu-aldehyde) |  |  |  |  |  |  |  |  |  |  |  |  |  |  |  |  |  |  | increased cellular SMN protein level | same enhancement

From patent publication US9045793B2, “Method of regulating the expression level of survival of motor neuron 1” (KAOHSIUNG MEDICAL UNIVERSITY, priority 2011, dated 2015)
